Data: patent US10548912B2, “Dosage regimen for a tiacumicin compound” (Astellas Pharma Europe Ltd., priority 2015, dated 2020)
Read-outs that look alike come from different tables or passages of the source.

Experiments:
[1] = tested on: Clostridium difficile infections (CDI); conditions: cited from earlier work
[2] = in vitro BCS study; low solubility, low permeability; cited from earlier work
CDI [3] = conditions: Phase III studies, mITT analysis; cited from earlier work
[4] = oral administration; cited from earlier work
[5] = tested on: Clostridium difficile toxin A and B; assay: Single patient cases of Examples 6 and 7, indicator-guided switch to intermittent fidaxomicin; type: in vivo, human
Method: (§1) A patient being tested positively for Clostridium difficile toxin A and B (using a suitable assay known in the art) and having >5 UBM per day is treated with 200 mg Fidaxomicin twice a day in an initial course of treatment. The number of UBM is monitored daily to establish if the number of UBM will change positively to ≤3 UBM per day. At day 2 of the initial course of treatment the UBM is reduced to 2 UBM per day and at day 3 to 1 UBM per day. Since the UBM is below 4 UBM per day and even below 3 UBM per day for 2 consecutive days, the dosage regimen is switched to the intermittent course of treatment by administering to the patient 200 mg Fidaxomicin every other day starting from day 5 until Clostridium difficile toxin A and B are tested negative. The presence of Clostridium difficile toxin A and B is tested negative at day 12 after start of treatment (using a suitable assay known in the art).
as §1, with “day 9 and 10” for “day 2”, “to” for “to 2 UBM per day and at day”, “3” for “3 to 1”, “4” for “4 UBM per day and even below 3”, “day 12” for “day 5”, “day 27” for “day 12”

CDI [6] = assay: Individual patient data for extended fidaxomicin treatment regimen; type: in vivo, human
Source text: Individual Patient Data for Extended Fidaxomicin Treatment Regimen

[7] = FID-CH: 10-day fidaxomicin chaser after repeat CDI treatment, 8 courses, excluding RCDI due to antimicrobial exposure
[8] = FID-TX: 200 mg BID for 10 days, of 3 courses

## CCc1c(Cl)c(O)c(Cl)c(O)c1C(=O)O[C@H]1[C@H](O)[C@H](OC)[C@H](OC/C2=C\C=C\C[C@H](O)/C(C)=C/[C@H](CC)[C@@H](O[C@@H]3OC(C)(C)[C@@H](OC(=O)C(C)C)[C@H](O)[C@@H]3O)/C(C)=C/C(C)=C/C[C@@H]([C@@H](C)O)OC2=O)O[C@@H]1C [fidaxomicin, 3-[[[6-deoxy-4-O-(3,5-dichloro-2-ethyl-4,6-dihydroxybenzoyl)-2-O-methyl-β-D-mannopyranosyl]oxy]methyl]-12(R)-[[6-deoxy-5-C-methyl-4-O-(2-methyl-1-oxopropyl)-β-D-lyxo-hexopyranosyl]oxy]-11 (S)-ethyl-8(S)-hydroxy-18(S)-(1(R)-hydroxyethyl)-9,13,15-trimethyloxacyclooctadeca-3,5,9,13,15-pentaene-2-one]
[1]; 18 courses of fidaxomicin in 14 patients with RCDI
  Courses resulting in treatment success: 18
[1]; [7]
  RCDI: 2
  RCDI (%): 25%
[1]; FID-TP: taper 200 mg daily 7 days then 200 mg QOD 7-26 days, 7 courses
  RCDI: no RCDI
[1]; [8]
  RCDI episodes: 2
  RCDI episodes (%): 66%
[1]; following FID-CH
  Average symptom-free interval (SFI): 240 days
[1]; following FID-TP
  Average symptom-free interval (SFI): 150 days
[1]; following FID-TX
  Average symptom-free interval (SFI): 73 days
[2]
  BCS class: Class IV
CDI [3]
  Recurrence of CDI: 14.1%
[4]
  Absorption from the intestinal tract: poorly absorbed
[5]; Example 6 patient, day 2 of initial course 200 mg twice a day, >5 UBM per day before
  UBM per day: 2 UBM per day
[5]; Example 6 patient, day 3 of initial course 200 mg twice a day
  UBM per day: 1 UBM per day
[5]; Example 6 patient, day 12 after start of treatment, 200 mg every other day from day 5
  Presence of Clostridium difficile toxin A and B: negative
[5]; Example 7 patient, day 9 and 10 of initial course 200 mg twice a day, >5 UBM per day before
  UBM per day: 3 UBM per day
[5]; Example 7 patient, day 27 after start of treatment, 200 mg every other day from day 12
  Presence of Clostridium difficile toxin A and B: negative
CDI [6]; Patient 1 (ID: 3000510001), Day 1
  Number of Unformed bowel movements per day: 4
CDI [6]; Patient 1 (ID: 3000510001), Day 2
  Number of Unformed bowel movements per day: 2
CDI [6]; Patient 1 (ID: 3000510001), Day 3
  Number of Unformed bowel movements per day: 1
CDI [6]; Patient 1 (ID: 3000510001), Day 4
  Number of Unformed bowel movements per day: 0
CDI [6]; Patient 1 (ID: 3000510001), Day 5
  Number of Unformed bowel movements per day: 0
CDI [6]; Patient 1 (ID: 3000510001), Day 6
  Number of Unformed bowel movements per day: 2
CDI [6]; Patient 1 (ID: 3000510001), Day 7
  Number of Unformed bowel movements per day: 0
CDI [6]; Patient 1 (ID: 3000510001), Day 8
  Number of Unformed bowel movements per day: 0
CDI [6]; Patient 1 (ID: 3000510001), Day 9
  Number of Unformed bowel movements per day: 0
CDI [6]; Patient 1 (ID: 3000510001), Day 10
  Number of Unformed bowel movements per day: 0
CDI [6]; Patient 2 (ID: 3000710001), Day 1
  Number of Unformed bowel movements per day: 7
CDI [6]; Patient 2 (ID: 3000710001), Day 2
  Number of Unformed bowel movements per day: 7
CDI [6]; Patient 2 (ID: 3000710001), Day 3
  Number of Unformed bowel movements per day: 2
CDI [6]; Patient 2 (ID: 3000710001), Day 4
  Number of Unformed bowel movements per day: 1
CDI [6]; Patient 2 (ID: 3000710001), Day 5
  Number of Unformed bowel movements per day: 1
CDI [6]; Patient 2 (ID: 3000710001), Day 6
  Number of Unformed bowel movements per day: 2
CDI [6]; Patient 2 (ID: 3000710001), Day 7
  Number of Unformed bowel movements per day: 1
CDI [6]; Patient 2 (ID: 3000710001), Day 8
  Number of Unformed bowel movements per day: 1
CDI [6]; Patient 2 (ID: 3000710001), Day 9
  Number of Unformed bowel movements per day: 1
CDI [6]; Patient 2 (ID: 3000710001), Day 10
  Number of Unformed bowel movements per day: 0
CDI [6]; Patient 3 (ID: 3400310001), Day 1
  Number of Unformed bowel movements per day: 8
CDI [6]; Patient 3 (ID: 3400310001), Day 2
  Number of Unformed bowel movements per day: 0
CDI [6]; Patient 3 (ID: 3400310001), Day 3
  Number of Unformed bowel movements per day: 0
CDI [6]; Patient 3 (ID: 3400310001), Day 4
  Number of Unformed bowel movements per day: 0
CDI [6]; Patient 3 (ID: 3400310001), Day 5
  Number of Unformed bowel movements per day: 0
CDI [6]; Patient 3 (ID: 3400310001), Day 6
  Number of Unformed bowel movements per day: 0
CDI [6]; Patient 3 (ID: 3400310001), Day 7
  Number of Unformed bowel movements per day: 0
CDI [6]; Patient 3 (ID: 3400310001), Day 8
  Number of Unformed bowel movements per day: 0
CDI [6]; Patient 3 (ID: 3400310001), Day 9
  Number of Unformed bowel movements per day: 0
CDI [6]; Patient 3 (ID: 3400310001), Day 10
  Number of Unformed bowel movements per day: 0
CDI [6]; Patient 4 (ID: 3580210001), Day 1
  Number of Unformed bowel movements per day: 9
CDI [6]; Patient 4 (ID: 3580210001), Day 2
  Number of Unformed bowel movements per day: 9
CDI [6]; Patient 4 (ID: 3580210001), Day 3
  Number of Unformed bowel movements per day: 5
CDI [6]; Patient 4 (ID: 3580210001), Day 4
  Number of Unformed bowel movements per day: 3
CDI [6]; Patient 4 (ID: 3580210001), Day 5
  Number of Unformed bowel movements per day: 2
CDI [6]; Patient 4 (ID: 3580210001), Day 6
  Number of Unformed bowel movements per day: 3
CDI [6]; Patient 4 (ID: 3580210001), Day 7
  Number of Unformed bowel movements per day: 3
CDI [6]; Patient 4 (ID: 3580210001), Day 8
  Number of Unformed bowel movements per day: 1
CDI [6]; Patient 4 (ID: 3580210001), Day 9
  Number of Unformed bowel movements per day: 1
CDI [6]; Patient 4 (ID: 3580210001), Day 10
  Number of Unformed bowel movements per day: 2
